Reference: ChEMBL document CHEMBL1137173, “Synthesis of an unusual branched-chain sugar, 5-C-methyl-L-idopyranose for SAR studies of pyranmycins: implication for the future design of aminoglycoside antibiotics” (2004)
Values after ≈ are worked out from the molar mass of the structure shown.

Legend:
Ribosomal RNA A-site = assay: Binding affinity towards decoding region at A-site of 16s rRNA; format: nucleic-acid assay; design: unit not given here
Escherichia coli = assay: Minimum inhibitory concentration required against Escherichia coli; format: functional
Staphylococcus aureus = assay: Minimum inhibitory concentration required against Staphylococcus aureus; format: functional
[1] = Escherichia coli, read-out: MIC
[2] = Staphylococcus aureus, read-out: MIC

| SMILES | Activity (Ribosomal RNA A-site) | MIC (Escherichia coli; [1]) [µM] | MIC (Staphylococcus aureus; [2]) [µM] | MIC (Escherichia coli) [µM] | MIC (Staphylococcus aureus) [µM] |
| --- | --- | --- | --- | --- | --- |
| NC[C@@H]1O[C@H](O[C@H]2[C@H](O[C@@H]3O[C@H](CO)[C@@H](O)[C@H](O)[C@@H]3O)[C@H](O)[C@H](N)C[C@H]2N)[C@@H](N)[C@@H](O)[C@@H]1O | -320 | 11 (≈ 5.33 µg/mL) | 3 (≈ 1.45 µg/mL) | – | – |
| C[C@@H]1O[C@@H](O[C@@H]2[C@H](O)[C@H](N)C[C@@H](N)[C@H]2O[C@H]2O[C@@H](CN)[C@@H](O)[C@H](O)[C@@H]2N)[C@@H](O)[C@@H](O)[C@@H]1O (stereo in doubt; form 2) | -314 | – | – | – | – |
| NC[C@@H]1O[C@H](O[C@H]2[C@@H](O)[C@H](O[C@@H]3[C@@H](O)[C@H](N)C[C@H](N)[C@H]3O[C@H]3O[C@H](CN)[C@@H](O)[C@H](O)[C@H]3N)O[C@@H]2CO)[C@H](N)[C@@H](O)[C@@H]1O [FRAMYCETIN] | -474 | 2 (≈ 1.23 µg/mL) | 3 (≈ 1.84 µg/mL) | – | – |
| C[C@]1(CO)O[C@@H](O[C@@H]2[C@H](O)[C@H](N)C[C@@H](N)[C@H]2O[C@H]2O[C@@H](CN)[C@@H](O)[C@H](O)[C@@H]2N)[C@@H](O)[C@@H](O)[C@@H]1O | -318 | 87 (≈ 43.4 µg/mL) | 27 (≈ 13.5 µg/mL) | – | – |
| C[C@@H]1O[C@@H](O[C@@H]2[C@H](O)[C@H](N)C[C@@H](N)[C@H]2O[C@H]2O[C@@H](CN)[C@@H](O)[C@H](O)[C@@H]2N)[C@@H](O)[C@@H](O)[C@@H]1O.Cl.Cl.Cl.Cl (stereo in doubt; form 2) | – | – | – | 19 | 13 |
| C[C@@H]1O[C@@H](O[C@@H]2[C@H](O)[C@H](N)C[C@@H](N)[C@H]2O[C@H]2O[C@@H](CN)[C@@H](O)[C@H](O)[C@@H]2N)[C@@H](O)[C@@H](O)[C@@H]1O.Cl.Cl.Cl.Cl (stereo in doubt; form 1) | – | – | 15 | 91 | – |
| NC[C@@H]1O[C@H](O[C@H]2[C@H](O[C@@H]3OC(CO)(CO)[C@@H](O)[C@H](O)[C@@H]3O)[C@H](O)[C@H](N)C[C@H]2N)[C@@H](N)[C@@H](O)[C@@H]1O | -315 | 22 (≈ 11.3 µg/mL) | 7 (≈ 3.6 µg/mL) | – | – |
| NC[C@@H]1O[C@H](O[C@H]2[C@H](O[C@@H]3O[C@H](CN)[C@@H](O)[C@H](O)[C@@H]3O)[C@H](O)[C@H](N)C[C@H]2N)[C@@H](N)[C@@H](O)[C@@H]1O | -394 | 9 (≈ 4.35 µg/mL) | 2 (≈ 0.967 µg/mL) | – | – |
| C[C@@H]1O[C@@H](O[C@@H]2[C@H](O)[C@H](N)C[C@@H](N)[C@H]2O[C@H]2O[C@@H](CN)[C@@H](O)[C@H](O)[C@@H]2N)[C@@H](O)[C@@H](O)[C@@H]1O (stereo in doubt; form 1) | -320 | – | – | – | – |
